Legend:
[1] = test system: human smooth muscle cells; format: cell-based
Procedure: A—VSMCs were incubated in the absence or presence of high Ca/P (2.5 mM Ca and 2.5 mM P) in 2% FBS/M199 media for 5 days and subjected to alizarin D staining Quantification shown graphically in B. Mean±SD, n=3. C—pictures of VSMCs were taken using light microscopy of alizarin-D stained VSMCs. 1.5—BSA control; 2.6−+5 mM GW4869; 3.7−+1.3% DSMO; 4.8−+1 uM Y-27632.

[2] = test system: human smooth muscle cells; assay: Matrix vesicle release by VSMCs (western blot of CD63 and Fetuin A in MV lysates, CD63 densitometry); format: cell-based; settings: matrix vesicle markers CD63 and Fetuin A in MV lysates, n=3
Procedure: Panel B, quantification of matrix vesicle release by VSMCs was performed using densitometry analysis of CD63, presented in MV as defined by western-blot analysis (shown in A). Mean±SD, n=3.

[3] = test system: VSMCs
Procedure: A—apoptosis of VSMCs in the presence of GW4869 as detected by AnnexinV-FITC binding VSMC were treated with 5 mM GW4869 in the absence or presence of high Ca/P and the level of apoptosis was determined by phospahtidylserine externalization.
VSMCs were cultured in the presence or absence of GW4869 and with or without high Ca and P in the media containing 2% serum for 5 days.
We therefore compared an effect of GW4869 on cell survival in the presence of raised extracellular concentrations of Ca and P in the media containing 2% serum.

Row | Compound | number of VSMCs in wells [1] | matrix vesicles release by human smooth muscle cells [2] | apoptosis of GW4869-treated VSMCs with high Ca and P compared with without [3] | calcification of VSMCs ([1]; high Ca/P (2.5 mM Ca and 2.5 mM P), media with 2% serum, 5 days, 5 mM GW4869, 1 uM Y-27632)
1 | Cl.Cl.O=C(/C=C/c1ccc(/C=C/C(=O)Nc2ccc(C3=NCCN3)cc2)cc1)Nc1ccc(C2=NCCN2)cc1 [GW4869] | dramatic reduction in the number of VSMCs | inhibition of matrix vesicles release | not increased | –
2 | C[C@@H](N)[C@H]1CC[C@H](C(=O)Nc2ccncc2)CC1 [Y 27632] | – | – | – | had no effect

— US8993247B2, “Assay for vascular calcification” (King's College London, priority 2010, dated 2015)
